Data on 1 compound can be found in patent publication US20080318954A1, “Compounds” (Cyclacel Limited, priority 2004, published 2008).

Bounds are passed on as bounds.

The target of one experiment is T1, MAPK2/ERK2 (Homo sapiens, UniProt P28482).
T1 construct: Dundee University (panel)
Briefly: Protein kinase panel selectivity screen, MAPK2/ERK2. The format is biochemical. Particulars: 1 μM compound; [ATP] 50 μM. How it is done:
(§1) The names of the 29 kinases comprising the selectivity screen, as well as the ATP concentrations used in each kinase case, are given in Table 5. The kinase assays were carried out as described previously.
(§2) Compound XIV at a concentration of 1 μM was screened in the 29-kinase panel (Dundee University) and the results are shown bellow in Table 6.

Experiment [1] concerns glycogen synthase activity in 3T3 mouse adipocytes. Briefly: Glycogen synthase (GS) assay in 3T3 mouse adipocytes. The format is cell-based. How it is done:
Mouse pre-adipocytes 3T3-F442A were seeded at 9×10^5 cells per 10 cm dish in DMEM 10% FCS, containing penicillin/streptomycin. When 90% confluent, the same medium was supplemented with 1 μg/mL insulin. After 3-5 days (when most cells were differentiated) insulin was removed and 4 days later the cells were ready to use.
Cells on 10 cm dishes (Human Embryonic Kidney (HEK) 293 cells, L6 rat myocytes, or 3T3 mouse adipocytes) were treated with different concentrations of GSK3-inhibitors or DMSO vehicle for 90 min. Incubation medium was removed and cells were washed with ice-cold phosphate-buffered saline (PBS) prior to lysis on ice in 50 mM HEPES, pH 7.5, 10 mM EDTA, 100 mM NaF, 5 mM DTT, protease inhibitor cocktail (Sigma). After a freeze/thaw cycle the samples are sonicated for 10 sec and centrifuged at 15,000 g for 10 min at 4° C. Lysate supernatants were snap-frozen on liquid nitrogen and stored at −80° C. Lysates were assayed for glycogen synthase activity in buffer (50 mM Tris-HCl, pH 7.8, 20 mM EDTA, 25 mM NaF, 5 mM DTT, 1% glycogen, 0.3 mM UDP-glucose and 0.06 μCi of [^14C]-UDP-glucose in the presence of 0.1 or 10 mM glucose-6-phosphate. The reaction was carried out for 30 min at 30° C. 70 μL of the reaction mixture (total volume 90 μL) were transferred to a GFC 96-well filter plate (bottom sealed with foil), containing 140 μL 96% ethanol. The GFC plate was incubated for 1 h on ice and than washed with 66% ethanol. To each well 100 μL scintillant liquid was added and the radioactivity of the samples was measured using a scintillation counter (Topcount, HP). Data are expressed as -fold increase in glycogen synthase activity ratios over those of control samples.

The test system of the next experiment is CK2. Put plainly: Protein kinase panel selectivity screen, CK2. Conditions: 1 μM compound; [ATP] 5 μM. In kind it is biochemical. How it is done: as §1, §2
The test system of the next experiment is p70S6K. Briefly: Protein kinase panel selectivity screen, p70S6K. The format is biochemical. Conditions: 1 μM compound; [ATP] 20 μM. How it is done: as §1, §2
In the next experiment the test system is CK1. Briefly: Protein kinase panel selectivity screen, CK1. In kind it is biochemical. Particulars: 1 μM compound; [ATP] 20 μM. How it is done: as §1, §2
The target of a further experiment is T2, CDK4/cyclin D1 (Homo sapiens, UniProt P11802).
T2 construct: His6 (N); made in house; host or cells: CDK4: Sf9 insect cells (baculovirus); Cyclin D1: E. coli, Sf9
T2 sequence (P11802 whole entry): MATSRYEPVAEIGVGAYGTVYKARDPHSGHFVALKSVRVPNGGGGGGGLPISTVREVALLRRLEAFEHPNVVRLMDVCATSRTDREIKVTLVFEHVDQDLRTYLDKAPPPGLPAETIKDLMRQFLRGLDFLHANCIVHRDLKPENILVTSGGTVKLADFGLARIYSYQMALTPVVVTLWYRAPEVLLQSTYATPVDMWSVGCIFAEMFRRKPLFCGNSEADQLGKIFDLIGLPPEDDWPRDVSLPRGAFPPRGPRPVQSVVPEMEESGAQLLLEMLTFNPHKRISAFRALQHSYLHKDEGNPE
T2 sequence (P24385 whole entry partner): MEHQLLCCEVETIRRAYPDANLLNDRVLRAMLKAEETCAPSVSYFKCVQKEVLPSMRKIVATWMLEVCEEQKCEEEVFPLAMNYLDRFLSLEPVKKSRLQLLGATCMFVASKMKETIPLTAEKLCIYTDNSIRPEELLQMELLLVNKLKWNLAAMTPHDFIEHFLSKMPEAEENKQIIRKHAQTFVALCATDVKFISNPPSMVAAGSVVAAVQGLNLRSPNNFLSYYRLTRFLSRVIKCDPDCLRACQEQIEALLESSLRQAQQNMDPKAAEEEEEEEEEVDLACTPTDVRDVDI
Put plainly: CDK/cyclin kinase assay, CDK4/cyclin D1. The format is biochemical. How it is done:
(§3) CDK4/cyclin D1, CDK1/cyclin B, CDK2/cyclin E, CDK2/cyclin A, CDK9/cyclin T1 and CDK7/cyclin H, all with a His6 tag on the N-terminus, were expressed in Sf9 insect cells using an appropriate baculovirus construct. Sf9 culture (1.6×10^6 cells/mL) was infected (MOI of 3) for two days. The cells were harvested by low speed centrifugation and the protein was purified from the insect cell pellet by metal affinity chromatography. In short: the insect cell pellet was lysed in Buffer A (10 mM Tris-HCl pH 8.0, 150 mM NaCl, 0.02% NP-40, 5 mM β-mercaptoethanol, 20 mM NaF, 1 mM Na3VO4, and Sigma Protease Inhibitor Cocktail) by sonication. The soluble fraction was cleared by centrifugation and loaded onto Ni-NTA-Agarose (Qiagen). Non-bound protein was washed off with 300 mM NaCl, 5-15 mM imidazole in buffer A and the bound protein was eluted with buffer A supplemented with 250 mM imidazole. The purified proteins were extensively dialyzed against storage buffer (20 mM HEPES pH 7.4, 50 mM NaCl, 2 mM DTT, 1 mM EDTA, 1 mM EGTA, 0.02% NP-40, 10% v/v glycerol) and stored at −70° C.
(§4) Compounds were investigated for their CDK2/cyclin E, CDK2/cyclin A, CDK1/cyclin B, and CDK4/cyclin D1 inhibitory activity. His6-tagged recombinant human cyclin-dependent kinases CDK1/cyclin B1, CDK2/cyclin E, CDK2/cyclin A, and CDK4 were expressed in sf9 insect cells using a baculovirus expression system. Recombinant cyclin D1 was expressed in E. coli. Proteins were purified by metal chelate affinity chromatography to greater than 90% homogeneity. Kinase assays were performed in 96-well plates using recombinant CDK/cyclins. Assays were performed in assay buffer (25 mM β-glycerophosphate, 20 mM MOPS, 5 mM EGTA, 1 mM DTT, 1 mM […], pH 7.4), into which were added 2-4 μg of active enzyme with appropriate substrates (purified histone H1 for CDK1 and CDK2, recombinant GST-retinoblastoma protein (residues 773-928) for CDK4). The reaction was initiated by addition of Mg/ATP mix (15 mM MgCl2+100 μM ATP with 30-50 kBq per well of [γ-^32P]-ATP) and mixtures incubated for 10-45 min, as required, at 30° C. Reactions were stopped on ice, followed by filtration through p81 or GF/C filterplates (for CDK4) (Whatman Polyfiltronics, Kent, UK). After washing 3 times with 75 mM aq orthophosphoric acid, plates were dried, scintillant added and incorporated radioactivity measured in a scintillation counter (TopCount, Packard Instruments, Pangbourne, Berks, UK). Compounds for kinase assays were made up as 10 mM stocks in DMSO and diluted into 10% DMSO in assay buffer. Data was analysed using curve-fitting software (GraphPad Prism version 3.00 for Windows, GraphPad Software, San Diego Calif. USA) to determine IC50 values (concentration of test compound which inhibits kinase activity by 50%).

The target of another experiment is T3, CDK2/cyclin E (Homo sapiens, UniProt P24941).
T3 construct: His6 (N); made in house; host or cells: Sf9 insect cells (baculovirus)
Briefly: CDK/cyclin kinase assay, CDK2/cyclin E. The format is biochemical. How it is done:
as §3, §4

The next experiment deals with T4, CDK7/cyclin H (Homo sapiens, UniProt P50613).
T4 construct: His6 (N); made in house; host or cells: Sf9 insect cells (baculovirus)
T4 sequence (P50613 whole entry, species assumed): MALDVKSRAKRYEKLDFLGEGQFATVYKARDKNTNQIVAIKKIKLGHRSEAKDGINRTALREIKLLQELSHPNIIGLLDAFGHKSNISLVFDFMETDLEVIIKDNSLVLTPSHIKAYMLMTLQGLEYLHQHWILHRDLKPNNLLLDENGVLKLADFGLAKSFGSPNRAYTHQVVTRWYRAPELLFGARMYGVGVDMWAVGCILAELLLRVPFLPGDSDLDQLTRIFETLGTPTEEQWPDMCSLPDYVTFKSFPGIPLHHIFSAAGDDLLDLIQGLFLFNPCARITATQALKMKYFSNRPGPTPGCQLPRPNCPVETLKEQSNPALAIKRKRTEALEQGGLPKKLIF
T4 sequence (P51946 whole entry partner, species assumed): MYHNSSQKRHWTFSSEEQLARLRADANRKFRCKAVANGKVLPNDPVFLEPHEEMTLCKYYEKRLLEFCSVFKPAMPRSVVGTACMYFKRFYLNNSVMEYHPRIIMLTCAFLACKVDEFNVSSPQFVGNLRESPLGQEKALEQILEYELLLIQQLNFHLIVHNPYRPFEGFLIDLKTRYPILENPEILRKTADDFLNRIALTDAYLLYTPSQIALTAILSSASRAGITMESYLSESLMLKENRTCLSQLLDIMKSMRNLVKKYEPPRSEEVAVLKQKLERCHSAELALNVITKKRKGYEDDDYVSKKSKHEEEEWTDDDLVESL
Put plainly: CDK7/cyclin H inhibition constant. The format is biochemical. How it is done: as §3
Intrinsic inhibition constants (Ki) for example compound XIV against a number of Ser/Thr kinases were determined and are summarized in Table 3.

The target in the next experiment is T5, MAPKAP-K2 (Homo sapiens, UniProt P49137).
T5 construct: Dundee University (panel)
T5 sequence (P49137 whole entry, species assumed): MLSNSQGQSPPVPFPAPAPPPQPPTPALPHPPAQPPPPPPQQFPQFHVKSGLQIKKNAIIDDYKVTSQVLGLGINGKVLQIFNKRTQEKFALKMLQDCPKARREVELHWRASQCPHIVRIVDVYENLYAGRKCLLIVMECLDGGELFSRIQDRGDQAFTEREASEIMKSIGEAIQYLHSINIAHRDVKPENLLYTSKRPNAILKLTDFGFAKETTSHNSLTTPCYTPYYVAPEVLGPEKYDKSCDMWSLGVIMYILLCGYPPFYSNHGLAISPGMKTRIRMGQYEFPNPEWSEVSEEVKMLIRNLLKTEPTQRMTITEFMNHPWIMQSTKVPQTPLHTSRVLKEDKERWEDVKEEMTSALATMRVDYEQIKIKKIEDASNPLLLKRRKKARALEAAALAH
Briefly: Protein kinase panel selectivity screen, MAPKAP-K2. Conditions: 1 μM compound; [ATP] 20 μM. The format is biochemical. How it is done: as §1, §2

T1 sequence (P28482 whole entry): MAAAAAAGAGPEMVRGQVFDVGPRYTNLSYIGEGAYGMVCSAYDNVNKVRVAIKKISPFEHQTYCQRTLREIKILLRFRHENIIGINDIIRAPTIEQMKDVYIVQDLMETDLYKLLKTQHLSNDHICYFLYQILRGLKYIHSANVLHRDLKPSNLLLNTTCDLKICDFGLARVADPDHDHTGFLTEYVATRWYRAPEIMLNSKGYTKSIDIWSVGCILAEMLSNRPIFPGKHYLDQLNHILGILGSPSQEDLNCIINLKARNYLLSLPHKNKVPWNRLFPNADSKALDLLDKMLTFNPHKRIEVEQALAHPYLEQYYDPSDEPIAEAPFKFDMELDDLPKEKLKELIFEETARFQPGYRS

As usually defined, the EC50 is the concentration that produces a half-maximal response. One may read the fold induction as the signal under treatment as a multiple of the control signal. Lower therefore signals little rise in signal. The term Ki denotes the dissociation constant of the complex between target and ligand, obtained from inhibition or displacement. Consider `Clc1ccc(Nc2nccc(-c3nccs3)n2)cn1` [Compound XIV, (6-Chloro-pyridin-3-yl)-(4-thiazol-2-yl-pyrimidin-2-yl)-amine], for which the results for the activity at 1 µM at MAPK2/ERK2 and at MAPKAP-K2 were 84 ± 8% and 86 ± 7%, respectively. The “Activation of GS relative to that induced by 40 mM LiCl” value in experiment [1] (3T3 adipocytes, 5 μM) was “approximately 2 fold”. In addition, the EC50 in experiment [1] (Mus musculus, Adipocyte, 3T3 adipocytes, from dose-response curves, read-out: EC50 activation of glycogen synthase) is 5 ± 2.3 µM. In addition, the fold induction at 0.2 µM in experiment [1] (Mus musculus, NIH3T3, 3T3 cells, 0.2 μM) was found to be 1.1. Further, the fold induction at 1 µM in [1] (Mus musculus, NIH3T3, 3T3 cells, 1 μM) turned out to be 2.5. In addition, the fold induction at 5 µM in experiment [1] (Mus musculus, NIH3T3, 3T3 cells, 5 μM) worked out at 3.7. This compound also showed a fold induction at 10 µM in experiment [1] (Mus musculus, NIH3T3, 3T3 cells, 10 μM) of 4.8. Also, the “Activity of glycogen synthase (fractional velocity)” value in [1] (mouse adipocyte cells, ratio of activity at 0.1 and 10 mM glucose-6-phosphate) is recorded as “increased the activity of glycogen synthase”. The “% Activity CK2” value in the experiment on CK2 was 84 ± 1%. The “% Activity p70S6K” value in the experiment with p70S6K is given as 91 ± 2%. In addition, in the experiment on CK1, the “% Activity CK1” value worked out at 69 ± 1%. In addition, the inhibitory constant (Ki) on CDK4/cyclin D1 is greater than 100 µM; at CDK2/cyclin E it was 5.5 µM; at CDK7/cyclin H it was greater than 50 µM. Further, the “Fold selectivity for GSK3 over CDK4/cyclin D1” value at CDK4/cyclin D1 (from Ki) is >6,250 fold. The results for the IC50 at CDK4/cyclin D1 (read-out: Kinase inhibition IC50 CDK4/D1) and on CDK2/cyclin E (read-out: Kinase inhibition IC50 CDK2/E) were greater than 100 µM and 11 µM, respectively. Besides, the “Selectivity IC50 (CDK2/E)/IC50 (GSK3β)” value on CDK2/cyclin E stood at 63. Also, at CDK2/cyclin E (from Ki), the “Fold selectivity for GSK3 over CDK2/cyclin E” value is 345 fold. In addition, the “Fold selectivity for GSK3 over CDK7/cyclin H” value on CDK7/cyclin H (from Ki) is recorded as >3,125 fold.
